From patent US5556859A, “N-(4-pyrimidinyl)amide pesticides” (DowElanco, priority 1994, dated 1996)

Tests used:
[1] = system: aster leafhopper (Macrosteles fascifrons); assay: whole plant or invertebrate; settings: 24 h, read-out: percent mortality, ALH
[2] = system: cotton aphid (Aphis gossypii); assay: whole plant or invertebrate; settings: 72 h, read-out: percent mortality, CA
[3] = system: tobacco budworm (Heliothis virescens); assay: Activity against tobacco budworm (TBW); assay type: in vivo; settings: 144 h, read-out: percent mortality, TBW
Protocol: In conducting evaluations of insecticidal activity, each test compound was formulated as a 400 ppm solution, and this solution was then diluted with water to give lesser concentrations. The 400 ppm solution was prepared by combining 19.2 mL of 0.05% solution of Tween 20 (polyoxyethylene (20) sorbitan monolaurate) in water with a solution of 8 mg of the compound in 0.8 mL of acetone/EtOH (9/1).
Activity against tobacco budworm (Heliothis virescens) was evaluated as follows. A general purpose lepidoptera artificial diet was diluted to half strength with a 5% non nutritive agar. 8 mL of this diet material was dispensed into each one ounce diet cup. One hour prior to treatment 18 to 20 eggs were dispensed onto the diet surface. The cups were then sprayed with formulated material through a flat-fan nozzle. The test was run using concentrations of 400 ppm and 50 ppm. Treated cups were air dried prior to sealing with plastic caps. The cups were held for 6 days at room temperature. Activity was then rated based on the total number of live and dead larvae, and on the size of live larvae.

[4] = system: German cockroach (Blattella germanicus); assay: whole plant or invertebrate; settings: 240 h, read-out: percent mortality, GECR
[5] = system: Southern corn rootworm (Diabrotica undecimpuctata howardi Barber); assay: whole plant or invertebrate; settings: in Zea mays, soil, read-out: percent mortality, SCRW
[6] = system: two spotted spider mite (Tetranychus urticae); assay: whole plant or invertebrate; settings: 72 h, read-out: percent mortality, TSSM
[7] = system: beet armyworm (Spodoptera exiqua); assay: whole plant or invertebrate; settings: 144 h, read-out: percent mortality, BAW
[8] = system: peanut root knot nematode (Meloidogyne arenaria); assay: whole plant or invertebrate; settings: in Arachis hypogaea, read-out: percent mortality, RKN

CCc1nccc(NC(=O)Cc2ccc(Oc3ccc(F)cc3)cc2)n1 [Compound 10, 4-(4-fluorophenoxy)phenyl-N-(2-ethyl-4-pyrimidinyl)acetamide]
mortality at 400 ppm [1]: 100% | mortality at 400 ppm [2]: 100% | mortality at 400 ppm [3]: 100% | mortality at 400 ppm [4]: 100% | mortality at 24 µg/g [5]: 100% | mortality at 400 ppm [6]: 100% | mortality at 400 ppm [7]: 100% | mortality at 400 ppm [8]: 90%

CCc1nccc(NC(=O)C(=CN(C)C)c2ccc(Oc3ccc(C(F)(F)F)cc3)cc2)n1 [Compound 73, 3-(dimethylamino)-N-(2-ethyl-4-pyrimidinyl)-1-(4-(4-trifluoromethylphenoxy)phenyl)-2-propenamide]
mortality at 400 ppm [1]: 100% | mortality at 400 ppm [2]: 100% | mortality at 400 ppm [3]: 100% | mortality at 400 ppm [4]: 100% | mortality at 24 µg/g [5]: 100% | mortality at 400 ppm [6]: 100% | mortality at 400 ppm [7]: 100% | mortality at 400 ppm [8]: 100%

Cc1nccc(NC(=O)Cc2ccc(Oc3ccc(C(F)(F)F)cc3)cc2)n1 [Compound 63, 4-(4-trifluoromethylphenoxy)phenyl-N-(2-methyl-4-pyrimidinyl)acetamide]
mortality at 400 ppm [1]: 60% | mortality at 400 ppm [2]: 100% | mortality at 400 ppm [3]: 100% | mortality at 400 ppm [4]: 100% | mortality at 24 µg/g [5]: 0% | mortality at 400 ppm [6]: 100% | mortality at 400 ppm [7]: 100% | mortality at 400 ppm [8]: 0%

CC(C)(C)c1nccc(NC(=O)Cc2ccc(Oc3ccc(Cl)cc3)cc2)n1 [Compound 59, 4-(4-chlorophenoxy)phenyl-N-(2-(1,1-dimethylethyl)-4-pyrimidinyl)acetamide]
mortality at 400 ppm [1]: 80% | mortality at 400 ppm [2]: 100% | mortality at 400 ppm [3]: 100% | mortality at 400 ppm [4]: 100% | mortality at 24 µg/g [5]: 100% | mortality at 400 ppm [6]: 0% | mortality at 400 ppm [7]: 100% | mortality at 400 ppm [8]: 0%

O=C(Cc1ccc(Oc2ccc(C(F)(F)F)cc2)cc1)Nc1ccncn1 [Compound 68, 4-(4-trifluoromethylphenoxy)phenyl-N-(4-pyrimidinyl)acetamide]
mortality at 400 ppm [1]: 0% | mortality at 400 ppm [2]: 0% | mortality at 400 ppm [3]: 100% | mortality at 400 ppm [4]: 0% | mortality at 24 µg/g [5]: 0% | mortality at 400 ppm [6]: 0% | mortality at 400 ppm [7]: 0% | mortality at 400 ppm [8]: 100%

COCc1nccc(NC(=O)Cc2ccc(Oc3ccc(C(F)(F)F)cc3)cc2)n1 [Compound 70, 4-(4-trifluoromethylphenoxy)phenyl-N-(2-(methoxymethyl)-4-pyrimidinyl)acetamide]
mortality at 400 ppm [1]: 0% | mortality at 400 ppm [2]: 90% | mortality at 400 ppm [3]: 60% | mortality at 400 ppm [4]: 100% | mortality at 24 µg/g [5]: 0% | mortality at 400 ppm [6]: 80% | mortality at 400 ppm [7]: 100% | mortality at 400 ppm [8]: 0%

Cc1nccc(NC(=O)Cc2ccc(Oc3ccc(Cl)cc3)cc2)n1 [Compound 1, 4-(4-chlorophenoxy)phenyl-N-(2-methyl-4-pyrimidinyl)acetamide]
mortality at 400 ppm [1]: 0% | mortality at 400 ppm [2]: 100% | mortality at 400 ppm [3]: 100% | mortality at 400 ppm [4]: 100% | mortality at 24 µg/g [5]: 100% | mortality at 400 ppm [6]: 100% | mortality at 400 ppm [7]: 100% | mortality at 400 ppm [8]: 100%

CCc1nccc(NC(=O)Cc2ccc(Oc3ccc(C(F)(F)F)cc3)cc2)n1 [Compound 11, 4-(4-trifluoromethylphenoxy)phenyl-N-(2-ethyl-4-pyrimidinyl)acetamide]
mortality at 400 ppm [1]: 80% | mortality at 400 ppm [2]: 100% | mortality at 400 ppm [3]: 100% | mortality at 400 ppm [4]: 100% | mortality at 24 µg/g [5]: 100% | mortality at 400 ppm [6]: 100% | mortality at 400 ppm [7]: 100% | mortality at 400 ppm [8]: 80%

CCc1nccc(NC(=O)C(=CN(C)C)c2ccc(Oc3ccc(C#N)cc3)cc2)n1 [Compound 78, 3-(dimethylamino)-N-(2-ethyl-4-pyrimidinyl)-1-(4-(4-cyanophenoxy)phenyl)-2-propenamide]
mortality at 400 ppm [1]: 60% | mortality at 400 ppm [2]: 80% | mortality at 400 ppm [3]: 100% | mortality at 400 ppm [4]: 80% | mortality at 24 µg/g [5]: 0% | mortality at 400 ppm [6]: 80% | mortality at 400 ppm [7]: 100% | mortality at 400 ppm [8]: 100%

O=C(Cc1ccc(OCC(F)(F)F)cc1)Nc1ccnc(-c2ccccc2)n1 [Compound 5, 4-(2,2,2-trifluroethoxy)phenyl-N-(2-phenyl-4-pyrimidinyl)acetamide]
mortality at 400 ppm [1]: 0% | mortality at 400 ppm [2]: 0% | mortality at 400 ppm [3]: 0% | mortality at 400 ppm [4]: 0% | mortality at 24 µg/g [5]: 0% | mortality at 400 ppm [6]: 0% | mortality at 400 ppm [7]: 30% | mortality at 400 ppm [8]: 0%

CCc1nccc(NC(=O)C(=CNCC(C)C)c2ccc(Oc3ccc(C#N)cc3)cc2)n1 [Compound 80, 3-(2-methylpropylamino)-N-(2-ethyl-4-pyrimidinyl)-2-(4-(4-cyanophenoxy)phenyl)-2-propenamide]
mortality at 400 ppm [1]: 60% | mortality at 400 ppm [2]: 100% | mortality at 400 ppm [3]: 100% | mortality at 400 ppm [4]: 100% | mortality at 24 µg/g [5]: 100% | mortality at 400 ppm [6]: 100% | mortality at 400 ppm [7]: 100% | mortality at 400 ppm [8]: 100%

CCc1nccc(NC(=O)Cc2ccc(Oc3ncc(Br)cn3)cc2)n1 [Compound 14, 4-(5-bromo-2-pyrimidinyloxy)phenyl-N-(2-ethyl-4-pyrimidinyl)acetamide]
mortality at 400 ppm [1]: 100% | mortality at 400 ppm [2]: 100% | mortality at 400 ppm [3]: 80% | mortality at 400 ppm [4]: 0% | mortality at 24 µg/g [5]: 0% | mortality at 400 ppm [6]: 0% | mortality at 400 ppm [7]: 100% | mortality at 400 ppm [8]: 0%

O=C(Cc1ccc(Oc2ccc(F)cc2)cc1)Nc1ccnc(Cl)n1 [Compound 54, 4-(4-fluorophenoxy)phenyl-N-(2-chloro-4-pyrimidinyl)acetamide]
mortality at 400 ppm [1]: 0% | mortality at 400 ppm [2]: 0% | mortality at 400 ppm [3]: 60% | mortality at 400 ppm [4]: 0% | mortality at 24 µg/g [5]: 0% | mortality at 400 ppm [6]: 0% | mortality at 400 ppm [7]: 100% | mortality at 400 ppm [8]: 0%

CCNC=C(C(=O)Nc1ccnc(CC)n1)c1ccc(Oc2ccc(C#N)cc2)cc1 [Compound 79, 3-(ethylamino)-N-(2-ethyl-4-pyrimidinyl)-1-(4-(4-cyanophenoxy)phenyl)-2-propenamide]
mortality at 400 ppm [1]: 80% | mortality at 400 ppm [2]: 100% | mortality at 400 ppm [3]: 100% | mortality at 400 ppm [4]: 100% | mortality at 24 µg/g [5]: 100% | mortality at 400 ppm [6]: 100% | mortality at 400 ppm [7]: 100% | mortality at 400 ppm [8]: 100%

CCc1nccc(NC(=O)Cc2ccc(OC(F)(F)C(F)F)cc2)n1 [Compound 55, 4-(1,1,2,2-tetrafluoroethoxy)phenyl-N-(2-ethyl-4-pyrimidinyl)acetamide]
mortality at 400 ppm [1]: 100% | mortality at 400 ppm [2]: 100% | mortality at 400 ppm [3]: 80% | mortality at 400 ppm [4]: 100% | mortality at 24 µg/g [5]: 100% | mortality at 400 ppm [6]: 100% | mortality at 400 ppm [7]: 100% | mortality at 400 ppm [8]: 100%

CC(C)(C)c1nccc(NC(=O)Cc2ccc(Oc3ccc(C(F)(F)F)cc3)cc2)n1 [Compound 62, 4-(4-trifluoromethylphenoxy)phenyl-N-(2-(1,1-dimethylethyl)-4-pyrimidinyl)acetamide]
mortality at 400 ppm [1]: 80% | mortality at 400 ppm [2]: 100% | mortality at 400 ppm [3]: 100% | mortality at 400 ppm [4]: 100% | mortality at 24 µg/g [5]: 100% | mortality at 400 ppm [6]: 100% | mortality at 400 ppm [7]: 100% | mortality at 400 ppm [8]: 0%

O=C(Cc1ccc(Oc2ccc(C(F)(F)F)cc2)cc1)Nc1ccnc(C2CC2)n1 [Compound 67, 4-(4-trifluoromethylphenoxy)phenyl-N-(2-cyclopropyl-4-pyrimidinyl)acetamide]
mortality at 400 ppm [1]: 60% | mortality at 400 ppm [2]: 100% | mortality at 400 ppm [3]: 100% | mortality at 400 ppm [4]: 100% | mortality at 24 µg/g [5]: 100% | mortality at 400 ppm [6]: 100% | mortality at 400 ppm [7]: 100% | mortality at 400 ppm [8]: 100%

O=C(Cc1ccc(Oc2cccc(C(F)(F)F)c2)cc1)Nc1ccnc(C2CCC2)n1 [Compound 71, 4-(3-trifluoromethylphenoxy)phenyl-N-(2-cyclobutyl-4-pyrimidinyl)acetamide]
mortality at 400 ppm [1]: 0% | mortality at 400 ppm [2]: 0% | mortality at 400 ppm [3]: 60% | mortality at 400 ppm [4]: 100% | mortality at 24 µg/g [5]: 0% | mortality at 400 ppm [6]: 0% | mortality at 400 ppm [7]: 100% | mortality at 400 ppm [8]: 0%

Cc1nccc(NC(=O)Cc2cccc(Oc3ccccc3)c2)n1 [Compound 8, 3-phenoxyphenyl-N-(2-methyl-4-pyrimidinyl)acetamide]
mortality at 400 ppm [1]: 100% | mortality at 400 ppm [2]: 100% | mortality at 400 ppm [3]: 0% | mortality at 400 ppm [4]: 40% | mortality at 24 µg/g [5]: 0% | mortality at 400 ppm [6]: 0% | mortality at 400 ppm [7]: 0% | mortality at 400 ppm [8]: 0%
